# Test results reported in patent publication US4774232A, “Bile-substituting method of treatment for the promotion of fat digestion” (Chinoin Gyogyszer Es Vegyeszeti Termak Ek Gyara Rt, priority 1985, dated 1988).
# Columns and labels:
# intact rats = experiment: Absorption of 3H-stearic acid with oral DIMEB in intact rats; format: in vivo, CFY female rats; settings: for Radioactivity in 10 ml of blood: 11.3 mg 3H-stearic acid + 50 mg DIMEB oral
# Experimental: The effect of DIMEB on the absorption of ^3 H-stearic acid was studied in intact rats. The aim of this experiment was to make clear if the absorption of stearic acid was stimulated by DIMEB under the conditions of physiological bile functions. The animals were starved overnight before and during the experiment but received water ad libitum. One group of the experimental animals (CFY female rats with an average body weight of 180 g; 3 animals ) received 13 mg of ^3 H-stearic acid (specific radioactivity: 147.22 kBq/mg), whereas the other group (3 animals) was given 11.3 mg of ^3 H-stearic acid and 50 mg of DIMEB in 2 ml of distilled water. The substances were suspended in the distilled water ultrasonically. Thereafter, the radioactivity level of the blood was measured at various time intervals by using the liquid scintillation method (Table X).
# [1] = system: bile duct-ligated rabbits; experiment: Substitution of the bile in bile duct-ligated rabbits (plasma triglyceride); format: in vivo, rabbits (Orychtolagus cuniculus); settings: for Plasma triglyceride concentration: rabbits after bile duct ligature
# Experimental: The triglyceride concentration of the plasma was determined by using the method of E. Van Handel [Clin. Chem.. 7, 249 (1961)], whereas the concentration of the free fatty acids was measured according to W. G. Dumcombe [Biochem. J. 88, 7 (1963)].
# The experimental animals were prevented in using their own bile for digestion of lipids by ligating their bile duct. Triglyceride concentration of the blood plasma was investigated after oral administration of lipids under normal pancreas secretion.
# The experimental rabbits (Orychtolagus cuniculus) were kept at a standard food fo 10 days before the experiment. The organic material composition of the animal food was as follows:
# The energy content of 100 g of the food amounted to […]. The animals were starved for 12 to 24 hours before the surgical operations but received water ad libitum. Within the same experimental series, rabbits of the same sex with a body weight of 2500 to 3000 g were used and the surgical operations were concurrently carried out. Pseudo-operated animals were used as controls. The operated experimental animals were used for the investigations after 48 hours. The test substances were orally administered to the animals through a gastric tube. The blood samples were taken from the auricular marginal vene.
# In the first series of experiments, the first group of animals were given 3 ml of sunflower oil, the second group of animals were given 3 ml of sunflower oil and 200 mg of DIMEB dissolved in 3 ml of water. The control (speudo-operated) animals received 6 ml of water.
# It is known that the digestion of the fats is a slower process than that of the oils. Thus, in the second series of experiments, the changes of the plasma triglyceride concentration of bile duct-ligated rabbits were followed after the oral administration of 5 ml of swine fat and 5 ml of swine fat together with 300 mg of DIMEB, respectively. The control group was given 5 ml of water (Table V). The quantity of the triglycerides was increased by about 100 percent as compared to the other two groups within one hour following the treatment. This tendency permanently remained during the experimental period lasting 6 hours.
# bile duct-ligated rats = experiment: Substitution of the bile in rats: plasma total lipid after single fat dose; format: in vivo, rats (Etymis rattus var. albino)
# Experimental: In the first series of experiments, the total lipid concentration of the plasma was investigated in bile-deficient rats.
# The experimental rats (Etymis rattus var. albino) were kept on a standard food for 10 days before the experiment. The composition of this animal food was as follows:
# The bile duct was ligated under ether anaesthesia.
# In the 48th hour following the operation, 1.5 ml of swine fat or 1.5 ml of swine fat together with 75 mg of DIMEB were orally administered. After 4.5 hours, the animals were decapitated and the total lipid concentration of the plasma was determined according to the method of de La Huerga et al. [Amer. J. Clin. Pathol. 23, 1163 (1953)]
# Water solubility = format: physicochemical
smiles,measurement,setting,value
"COC[C@H]1O[C@@H]2O[C@H]3[C@H](O)[C@@H](OC)[C@@H](O[C@H]4[C@H](O)[C@@H](OC)[C@@H](O[C@H]5[C@H](O)[C@@H](OC)[C@@H](O[C@H]6[C@H](O)[C@@H](OC)[C@@H](O[C@H]7[C@H](O)[C@@H](OC)[C@@H](O[C@H]8[C@H](O)[C@@H](OC)[C@@H](O[C@H]1[C@H](O)[C@H]2OC)O[C@@H]8COC)O[C@@H]7COC)O[C@@H]6COC)O[C@@H]5COC)O[C@@H]4COC)O[C@@H]3COC [DIMEB, heptakis(2,6-di-O-methyl)-β-cyclodextrin]",Radioactivity in 10 ml of blood,"intact rats; 1 h, animal 4",1.71 percentage
same,Radioactivity in 10 ml of blood,"intact rats; 1 h, animal 5",1.74 percentage
same,Radioactivity in 10 ml of blood,"intact rats; 1 h, animal 6",2.23 percentage
same,Radioactivity in 10 ml of blood,"intact rats; 1 h, mean",1.89 percentage
same,Radioactivity in 10 ml of blood,"intact rats; 2 h, animal 4",1.84 percentage
same,Radioactivity in 10 ml of blood,"intact rats; 2 h, animal 5",1.88 percentage
same,Radioactivity in 10 ml of blood,"intact rats; 2 h, animal 6",2.00 percentage
same,Radioactivity in 10 ml of blood,"intact rats; 2 h, mean",1.91 percentage
same,Radioactivity in 10 ml of blood,"intact rats; 3 h, animal 4",2.03 percentage
same,Radioactivity in 10 ml of blood,"intact rats; 3 h, animal 5",1.75 percentage
same,Radioactivity in 10 ml of blood,"intact rats; 3 h, animal 6",2.13 percentage
same,Radioactivity in 10 ml of blood,"intact rats; 3 h, mean",1.97 percentage
same,Radioactivity in 10 ml of blood,"intact rats; 4 h, animal 4",2.12 percentage
same,Radioactivity in 10 ml of blood,"intact rats; 4 h, animal 5",1.71 percentage
same,Radioactivity in 10 ml of blood,"intact rats; 4 h, animal 6",1.99 percentage
same,Radioactivity in 10 ml of blood,"intact rats; 4 h, mean",1.94 percentage
same,Radioactivity in 10 ml of blood,"intact rats; 5 h, animal 4",2.10 percentage
same,Radioactivity in 10 ml of blood,"intact rats; 5 h, animal 5",1.76 percentage
same,Radioactivity in 10 ml of blood,"intact rats; 5 h, animal 6",2.00 percentage
same,Radioactivity in 10 ml of blood,"intact rats; 5 h, mean",1.95 percentage
same,Radioactivity in 10 ml of blood,"intact rats; 6 h, animal 4",2.16 percentage
same,Radioactivity in 10 ml of blood,"intact rats; 6 h, animal 5",1.75 percentage
same,Radioactivity in 10 ml of blood,"intact rats; 6 h, animal 6",2.04 percentage
same,Radioactivity in 10 ml of blood,"intact rats; 6 h, mean",1.98 percentage
same,Radioactivity in 10 ml of blood,"intact rats; 8 h, animal 4",2.16 percentage
same,Radioactivity in 10 ml of blood,"intact rats; 8 h, animal 5",1.84 percentage
same,Radioactivity in 10 ml of blood,"intact rats; 8 h, animal 6",1.94 percentage
same,Radioactivity in 10 ml of blood,"intact rats; 8 h, mean",1.98 percentage
same,Radioactivity in 10 ml of blood,"intact rats; 10 h, animal 4",2.20 percentage
same,Radioactivity in 10 ml of blood,"intact rats; 10 h, animal 5",2.02 percentage
same,Radioactivity in 10 ml of blood,"intact rats; 10 h, animal 6",2.21 percentage
same,Radioactivity in 10 ml of blood,"intact rats; 10 h, mean",2.14 percentage
same,Radioactivity in 10 ml of blood,"intact rats; 24 h, animal 4",2.84 percentage
same,Radioactivity in 10 ml of blood,"intact rats; 24 h, animal 5",2.94 percentage
same,Radioactivity in 10 ml of blood,"intact rats; 24 h, animal 6",2.39 percentage
same,Radioactivity in 10 ml of blood,"intact rats; 24 h, mean",2.72 percentage
same,"Radioactivity of the blood, percent of the administered activity","intact rats; 24th hour, both groups",2.7%
same,Absorption-enhancing effect on 3H-stearic acid,"intact rats; physiological bile functions, 50 mg DIMEB",did not show any absorption-enhancing effect
same,Plasma triglyceride concentration compared with the group treated with oil alone,"[1]; bile duct-ligated rabbits, 3 ml sunflower oil + 200 mg DIMEB, 6th hour",nearly three-fold
same,Increase of the quantity of plasma triglycerides compared to the other two groups,"[1]; bile duct-ligated rabbits, 5 ml swine fat + 300 mg DIMEB, within one hour following the treatment",about 100%
same,Plasma triglyceride concentration,"[1]; 3 ml sunflower oil + 200 mg DIMEB oral, Hour 0",52 ± 19 mg/100 ml
same,Plasma triglyceride concentration,"[1]; 3 ml sunflower oil + 200 mg DIMEB oral, Hour 1",96 ± 32 mg/100 ml
same,Plasma triglyceride concentration,"[1]; 3 ml sunflower oil + 200 mg DIMEB oral, Hour 2.5",87 ± 30 mg/100 ml
same,Plasma triglyceride concentration,"[1]; 3 ml sunflower oil + 200 mg DIMEB oral, Hour 4",61 ± 14 mg/100 ml
same,Plasma triglyceride concentration,"[1]; 3 ml sunflower oil + 200 mg DIMEB oral, Hour 6",125 ± 3 mg/100 ml
same,Plasma triglyceride concentration,"[1]; 5 ml swine fat + 300 mg DIMEB oral, Hour 0",58 ± 19 mg/100 ml
same,Plasma triglyceride concentration,"[1]; 5 ml swine fat + 300 mg DIMEB oral, Hour 1",104 ± 30 mg/100 ml
same,Plasma triglyceride concentration,"[1]; 5 ml swine fat + 300 mg DIMEB oral, Hour 2.5",92 ± 26 mg/100 ml
same,Plasma triglyceride concentration,"[1]; 5 ml swine fat + 300 mg DIMEB oral, Hour 4",83 ± 25 mg/100 ml
same,Plasma triglyceride concentration,"[1]; 5 ml swine fat + 300 mg DIMEB oral, Hour 6",125 ± 3 mg/100 ml
same,Increase of total lipid fraction in the blood plasma,"bile duct-ligated rats; bile duct-ligated rats, 1.5 ml fat + 75 mg DIMEB",5 fold
same,Total lipid concentration of the blood plasma,"bile duct-ligated rats; rats after bile duct-ligation, 1.5 ml fat + 75 mg DIMEB oral, after 4.5 hours",1266.6 ± 86.5 mg/100 ml
same,Water solubility,Water solubility,very high water solubility
